Laboratory results published in PMC6751662, “Pharmacological and functional similarities of the human neuropeptide Y system in C. elegans challenges phylogenetic views on the FLP/NPR system” (Cell Communication and Signaling : CCS, 2019).

Legend:
Format in all cases: cell-based, C. elegans
NPR-6 = assay: cAMP reporter gene assay, Gi/o (inhibition of forskolin-induced cAMP), NPR-6; conditions: for cAMP assay Gi, NPR-6: 4 h, lower = higher Gi/o activity, transfected HEK293, CRE-luciferase, mean of >=3 independent experiments; for cAMP, x-fold of forskolin (mean), NPR-6: 1 µM forskolin set to 1.00, transiently transfected HEK293 cells, mean of at least three independent experiments
Procedure: (§1) Activation of Gs and Gi/o was assessed with a cAMP reporter gene assay. HEK293 cells grown to 70–80% confluency in 6-well plates were transiently co-transfected with vectors encoding the receptor and the cAMP reporter gene plasmid pGL4.29 [luc2P/CRE/Hygro] (Promega; 4 μg total, 1:1 ratio) using Metafectene Pro (3 μl/μg DNA; Biontex) following the manufacturer’s instructions. 16 h post transfection, the cells were seeded into white 384-well plates at a density of 20,000 cells/well. On the next day, the medium was removed and the cells were stimulated with 20 μl of peptide solution (or forskolin as positive control) in serum-free DMEM for 4 h. For measuring Gi/o activity, the peptide solutions additionally contained 1 μM forskolin to elevate cellular cAMP levels. After incubation, the luciferase substrate OneGlo in lysis buffer (Promega) was added and the luminescence was measured in a microplate reader Tecan Spark (Tecan). Data were analyzed with GraphPad Prism 5.03 and are shown as fold of basal or fold of forskolin in case of Gαi/o activity.
(§2) For in vitro activation, data is presented as mean ± SEM of at least three independent experiments conducted in technical triplicate. […] For the C. elegans NPRs, we considered the strongest response elicited by any of the peptides downstream of a particular receptor as the receptor’s maximal signal. This may or may not be the biological maximum that can be reached by the ‘true’ endogenous agonist. For the human receptors, the response to the established endogenous agonist reflected the maximal signal.

NPR-5b = target: T1, NPR-5b (Caenorhabditis elegans, UniProt Q6F3C9); assay: cAMP reporter gene assay, Gi/o (with forskolin), NPR-5b; conditions: for cAMP assay Gi, NPR-5b: 4 h, transfected HEK293, CRE-luciferase, increase consistent with Gs coupling, mean of >=3 independent experiments; for cAMP, x-fold of forskolin (mean), NPR-5b: 1 µM forskolin set to 1.00, values > 1 = cAMP stimulation, transiently transfected HEK293 cells, mean of at least three independent experiments
T1 sequence (Q6F3C9 1-433): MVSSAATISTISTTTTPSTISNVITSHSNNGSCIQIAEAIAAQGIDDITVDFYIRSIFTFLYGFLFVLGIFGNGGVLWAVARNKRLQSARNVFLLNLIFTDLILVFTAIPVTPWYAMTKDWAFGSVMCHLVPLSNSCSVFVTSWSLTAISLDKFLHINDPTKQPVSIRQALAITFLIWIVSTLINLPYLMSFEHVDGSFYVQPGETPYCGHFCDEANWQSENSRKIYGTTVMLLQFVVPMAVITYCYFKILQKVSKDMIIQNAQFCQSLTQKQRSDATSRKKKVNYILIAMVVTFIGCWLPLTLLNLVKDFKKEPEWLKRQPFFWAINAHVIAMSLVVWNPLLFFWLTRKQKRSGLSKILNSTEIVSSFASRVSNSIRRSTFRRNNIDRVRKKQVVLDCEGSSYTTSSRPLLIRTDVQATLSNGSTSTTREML
Procedure, shortened: (§3)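 HEK293 cells transiently co-transfected with receptor and CRE-luciferase reporter (pGL4.29), stimulated with peptides in serum-free DMEM for 4 h with 1 μM forskolin added for Gi/o readout. Luminescence measured after lysis; maximal signal taken as strongest response to any peptide at that receptor; mean ± SEM, ≥3 experiments.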

NPR-11 = target: T2, NPR-11 (Caenorhabditis elegans, UniProt Q18179); assay: cAMP reporter gene assay, Gi/o (inhibition of forskolin-induced cAMP), NPR-11; conditions: for cAMP assay Gi, NPR-11: 4 h, lower = higher Gi/o activity, transfected HEK293, CRE-luciferase, mean of >=3 independent experiments; for cAMP, x-fold of forskolin (mean), NPR-11: 1 µM forskolin set to 1.00, transiently transfected HEK293 cells, mean of at least three independent experiments
T2 construct: expressed in transfected cells; host or cells: HEK293, transient
T2 sequence (Q18179 1-402): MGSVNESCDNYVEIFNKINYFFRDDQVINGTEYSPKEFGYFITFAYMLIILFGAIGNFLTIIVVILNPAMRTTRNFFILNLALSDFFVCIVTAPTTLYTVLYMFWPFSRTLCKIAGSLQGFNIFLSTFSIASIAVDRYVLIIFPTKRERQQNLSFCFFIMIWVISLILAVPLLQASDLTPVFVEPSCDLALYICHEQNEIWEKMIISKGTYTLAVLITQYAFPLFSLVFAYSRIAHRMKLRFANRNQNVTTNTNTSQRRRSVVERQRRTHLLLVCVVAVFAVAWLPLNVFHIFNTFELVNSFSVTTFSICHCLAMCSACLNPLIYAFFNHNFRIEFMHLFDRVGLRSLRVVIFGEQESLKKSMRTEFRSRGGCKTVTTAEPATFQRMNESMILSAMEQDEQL
Procedure, shortened: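 Reporter assay in HEK293 expressing receptor and CRE-luc2P; 4 h peptide treatment, with 1 μM forskolin added for Gi/o. Values given as fold change of luminescence.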

NPR-4b = target: T3, NPR-4b (Caenorhabditis elegans, UniProt A0A078BTK0); assay: cAMP reporter gene assay, Gi/o (inhibition of forskolin-induced cAMP), NPR-4b; conditions: for cAMP assay Gi, NPR-4b: 4 h, lower = higher Gi/o activity, transfected HEK293, CRE-luciferase, mean of >=3 independent experiments; for cAMP, x-fold of forskolin (mean), NPR-4b: 1 µM forskolin set to 1.00, transiently transfected HEK293 cells, mean of at least three independent experiments
T3 sequence (A0A078BTK0 1-376): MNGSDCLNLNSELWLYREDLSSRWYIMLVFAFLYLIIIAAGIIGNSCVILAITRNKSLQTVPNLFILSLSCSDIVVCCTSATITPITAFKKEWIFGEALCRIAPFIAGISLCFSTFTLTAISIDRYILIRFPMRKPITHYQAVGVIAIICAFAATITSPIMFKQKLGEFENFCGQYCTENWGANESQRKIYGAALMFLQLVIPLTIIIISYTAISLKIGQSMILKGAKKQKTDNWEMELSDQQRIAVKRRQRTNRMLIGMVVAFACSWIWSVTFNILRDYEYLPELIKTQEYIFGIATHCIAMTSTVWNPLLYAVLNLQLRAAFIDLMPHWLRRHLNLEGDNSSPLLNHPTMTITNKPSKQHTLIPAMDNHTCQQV
Procedure, shortened: as §3

NPR-3 = target: T4, NPR-3 (Caenorhabditis elegans, UniProt P90745); assay: cAMP reporter gene assay, Gi/o (inhibition of forskolin-induced cAMP), NPR-3; conditions: for cAMP assay Gi, NPR-3: 4 h, lower = higher Gi/o activity, transfected HEK293, CRE-luciferase, mean of >=3 independent experiments; for cAMP, x-fold of forskolin (mean), NPR-3: 1 µM forskolin set to 1.00, transiently transfected HEK293 cells, mean of at least three independent experiments
T4 construct: expressed in transfected cells; host or cells: HEK293
T4 sequence (P90745 1-376): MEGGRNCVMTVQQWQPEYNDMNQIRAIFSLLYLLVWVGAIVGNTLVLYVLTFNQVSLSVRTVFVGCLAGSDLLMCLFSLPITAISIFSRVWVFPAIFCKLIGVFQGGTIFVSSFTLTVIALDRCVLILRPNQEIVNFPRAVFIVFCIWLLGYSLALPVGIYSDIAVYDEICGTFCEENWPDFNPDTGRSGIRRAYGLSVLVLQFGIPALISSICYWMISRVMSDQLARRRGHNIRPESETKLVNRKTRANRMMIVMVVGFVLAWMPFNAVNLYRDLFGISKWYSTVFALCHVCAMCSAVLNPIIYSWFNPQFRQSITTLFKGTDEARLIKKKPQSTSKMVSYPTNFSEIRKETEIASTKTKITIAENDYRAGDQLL
Procedure: as §1, §2

[1] = 0.1 µM peptide + 1 µM forskolin (set to 1.00)
[2] = 10 µM peptide + 1 µM forskolin (set to 1.00)

cAMP assay Gi, NPR-5b (NPR-5b; [1])	cAMP, x-fold of forskolin (mean), NPR-5b (NPR-5b; 0.1 µM peptide)	cAMP assay Gi, NPR-5b (NPR-5b; [2])	cAMP, x-fold of forskolin (mean), NPR-5b (NPR-5b; 10 µM peptide)	cAMP assay Gi, NPR-11 (NPR-11; [1])	cAMP, x-fold of forskolin (mean), NPR-11 (NPR-11; 0.1 µM peptide)	cAMP assay Gi, NPR-11 (NPR-11; [2])	cAMP, x-fold of forskolin (mean), NPR-11 (NPR-11; 10 µM peptide)	cAMP assay Gi, NPR-4b (NPR-4b; [1])	cAMP, x-fold of forskolin (mean), NPR-4b (NPR-4b; 0.1 µM peptide)	cAMP assay Gi, NPR-4b (NPR-4b; [2])	cAMP, x-fold of forskolin (mean), NPR-4b (NPR-4b; 10 µM peptide)	cAMP assay Gi, NPR-3 (NPR-3; [1])	cAMP, x-fold of forskolin (mean), NPR-3 (NPR-3; 0.1 µM peptide)	cAMP assay Gi, NPR-3 (NPR-3; [2])	cAMP, x-fold of forskolin (mean), NPR-3 (NPR-3; 10 µM peptide)	Substance	cAMP assay Gi, NPR-6 (NPR-6; [1])	cAMP, x-fold of forskolin (mean), NPR-6 (NPR-6; 0.1 µM peptide)	cAMP assay Gi, NPR-6 (NPR-6; [2])	cAMP, x-fold of forskolin (mean), NPR-6 (NPR-6; 10 µM peptide)
0.92 x-fold of forskolin	0.91 x-fold of forskolin	1.90 x-fold of forskolin	1.96 x-fold of forskolin	0.94 x-fold of forskolin	0.94 x-fold of forskolin	0.51 x-fold of forskolin	0.48 x-fold of forskolin	0.75 x-fold of forskolin	0.73 x-fold of forskolin	0.40 x-fold of forskolin	0.36 x-fold of forskolin	0.68 x-fold of forskolin	0.66 x-fold of forskolin	0.87 x-fold of forskolin	0.86 x-fold of forskolin	APKPKFIRF-NH2 [FLP-5-1, C. elegans FMRFamide-like peptide, C-terminally amidated, synthesized by SPPS]	0.85 x-fold of forskolin	0.84 x-fold of forskolin	1.01 x-fold of forskolin	1.01 x-fold of forskolin
–	1.10 x-fold of forskolin	–	3.95 x-fold of forskolin	–	0.80 x-fold of forskolin	–	0.97 x-fold of forskolin	–	0.67 x-fold of forskolin	–	0.23 x-fold of forskolin	–	0.85 x-fold of forskolin	–	0.89 x-fold of forskolin	NPENDTPFGTMRF-NH2 [FLP-3-4, C. elegans FMRFamide-like peptide, C-terminally amidated, synthesized by SPPS]	–	0.85 x-fold of forskolin	–	0.26 x-fold of forskolin
–	0.84 x-fold of forskolin	–	2.19 x-fold of forskolin	–	0.14 x-fold of forskolin	–	0.06 x-fold of forskolin	–	0.89 x-fold of forskolin	–	0.34 x-fold of forskolin	–	0.90 x-fold of forskolin	–	0.97 x-fold of forskolin	TSGPLGNLAEELNGYSRKKGGFSFRF-NH2 [QRFP26, human pyroglutamylated RFamide peptide, 26 residues, reference compound]	–	0.97 x-fold of forskolin	–	0.93 x-fold of forskolin
